In one experiment the target is T1, E.faecalis PheRS (Enterococcus faecalis, UniProt Q836J6).
T1 sequence (Q836J6 1-348): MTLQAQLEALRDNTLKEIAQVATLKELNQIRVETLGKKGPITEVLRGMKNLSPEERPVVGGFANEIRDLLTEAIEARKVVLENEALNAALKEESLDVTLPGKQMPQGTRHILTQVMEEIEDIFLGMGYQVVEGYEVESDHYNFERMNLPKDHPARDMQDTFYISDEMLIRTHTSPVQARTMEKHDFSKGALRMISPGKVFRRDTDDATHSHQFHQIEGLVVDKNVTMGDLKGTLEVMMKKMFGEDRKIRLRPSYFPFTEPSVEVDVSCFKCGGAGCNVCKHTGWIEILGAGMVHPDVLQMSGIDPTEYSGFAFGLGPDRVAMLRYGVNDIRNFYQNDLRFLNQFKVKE
T1 sequence (Q836J5 1-807 partner): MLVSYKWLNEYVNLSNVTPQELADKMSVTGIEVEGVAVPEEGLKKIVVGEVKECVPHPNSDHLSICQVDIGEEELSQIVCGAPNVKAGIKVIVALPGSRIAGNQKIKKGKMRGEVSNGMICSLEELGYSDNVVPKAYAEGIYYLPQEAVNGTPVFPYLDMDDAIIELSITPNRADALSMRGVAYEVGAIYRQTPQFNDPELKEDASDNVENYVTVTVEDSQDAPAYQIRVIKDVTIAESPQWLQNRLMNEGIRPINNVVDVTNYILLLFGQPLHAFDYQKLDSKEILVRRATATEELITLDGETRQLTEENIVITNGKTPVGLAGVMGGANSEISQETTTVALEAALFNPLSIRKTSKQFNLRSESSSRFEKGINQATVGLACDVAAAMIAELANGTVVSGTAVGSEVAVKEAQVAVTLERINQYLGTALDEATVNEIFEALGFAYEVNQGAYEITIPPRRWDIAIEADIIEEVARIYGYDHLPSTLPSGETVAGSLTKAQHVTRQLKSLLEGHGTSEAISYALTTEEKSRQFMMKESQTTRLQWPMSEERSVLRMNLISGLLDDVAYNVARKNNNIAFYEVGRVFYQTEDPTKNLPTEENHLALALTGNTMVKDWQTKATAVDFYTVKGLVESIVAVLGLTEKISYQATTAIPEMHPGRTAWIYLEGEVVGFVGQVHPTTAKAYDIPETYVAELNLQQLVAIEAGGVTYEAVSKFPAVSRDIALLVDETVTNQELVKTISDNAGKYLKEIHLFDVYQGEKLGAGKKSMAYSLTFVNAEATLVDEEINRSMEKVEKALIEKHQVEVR
Put plainly: aaRS charging and trichloroacetic acid precipitation assay, IC50 determination. The experiment is classed as biochemical. The following applies: 20 min preincubation at 25 C; Km concentrations of substrates; stereoisomers tested separately. On the procedure: IC50 determinations for the aminoacyl-tRNA synthetases (aaRS) isolated from pathogen or HeLa cells were carried out using a modification of the aaRS charging and trichloroacetic acid precipitation assay described previously (see examples: D. Kern et. al., Biochemie, 61, 1257-1272 (1979) and J. Gilbart et. al. Antimicrobial Agents and Chemotherapy, 37(1), 32-38 (1993)). The aaRS enzymes were prepared via standard cloning and expression methods and partially purified or partially purified from pathogen and HeLa cell extracts. The activity of each aaRS enzyme was standardized as trichloroacetic acid precipitable counts (cpm) obtained at 10 minutes reaction time at Km concentrations of substrates. For practical purposes, the minimal acceptable value is approximately 2000 cpm per 10 minute reaction.
Test compounds were typically present as serial dilutions in concentration ranges of 0.35 nM to 35 μM. Test compound solutions were prepared by dissolving test compound in 100% dimethyl sulfoxide and diluting to the final concentration with 50 mM HEPES, pH 7.5. IC50 determinations were typically performed in duplicate with each experiment containing 4-8 concentrations of inhibitor along with two no inhibitor controls.
IC50 incubations were initiated by supplementing the preincubation mixture to a final assay concentration of 10 mM MgCl2, 30 mM KCl, 10 mM KF, 50 mM HEPES (pH 7.5), […], 2-20 μM [^3 H] amino acid, and 90-180 μM crude tRNA in a final volume of 35 microliters. The reaction was incubated at 25° C. for 5-20 minutes. At specified time points a 15 microliter aliquot was removed and added to a well of a Millipore filtration plate (Multiscreen-FB, MAFB NOB 10) containing 100 microliters of cold 5% (wt/vol) trichloroacetic acid. Trichloroacetic acid precipitable material was collected by filtration on Millipore Multiscreen filtration station, washed twice with cold 5% trichloroacetic acid, twice with water, and dried. Plates were typically allowed to air dry for several hours or they were baked at 50° C. in a vacuum oven for 30 minutes. The radioactivity on the dried plates was quantitated by the addition of Packard Microscint-20 to the wells and counting with a Packard TopCount scintillation counter.
Inhibitor activity was typically reported as a percentage of the control aaRS activity. The IC50 value was determined by plotting per cent activity versus compound concentration in the assay and identifying the concentration at which 50% of the activity was remaining.
Stereoisomers are tested separately and referred to by the suffix a-d.

A further experiment concerns S.aureus. The experiment can be described thus: Whole cell antimicrobial screen (MIC, NCCLS microdilution). The experiment is classed as cell-based. The settings on record: for MIC: Staphylococcus aureus. On the procedure: Compounds were tested for antimicrobial activity against a panel of organisms according to standard procedures described by the National Committee for Clinical Laboratory Standards (NCCLS document M7-A3, Vol. 13, No. 25, 1993/NCCLS document M27-P, Vol. 12, No. 25, 1992). Compounds were dissolved in 100% DMSO and were diluted to the final reaction concentration (0.1 μg/ml-500 μg/ml) in microbial growth media. In all cases the final concentration of DMSO incubated with cells is less than or equal to 1%. For minimum inhibitory concentration (MIC) calculations, 2-fold dilutions of compounds were added to wells of a microtiter plate containing 5×10^4 bacteria or fungal cells in a final volume of 200 lambda of an appropriate media (Mueller-Hinton Broth; Haemophilus Test Media; Mueller-Hinton Broth+5% Sheep Blood; or […]). Plates were incubated overnight at an appropriate temperature (30° C.-37° C.) and optical densities (measure of cell growth) were measured using a commercial plate reader. The MIC value is defmed as the lowest compound concentration inhibiting growth of the test organism.

Where [1] appears, read: 2-fold dilutions, overnight incubation, optical density readout.
Where [2] appears, read: 2-fold dilutions, overnight incubation, optical density readout, read-out: MIC S.aureus.

Converted amounts (≈) assume the structure as drawn. Like-named read-outs stand apart in the source and are kept apart here.

As a reminder, the IC50 is the point on the concentration scale where inhibition reaches its midpoint. A higher IC50 goes with weaker potency.

`O=C(Nc1ccc(Cl)c(Cl)c1)C1C(c2ccccc2)OC23C(O)c4ccccc4C2OC(=O)C13` (single isomer, unassigned) [Example 1a]: 170 nM corresponded to half-maximal inhibition against E.faecalis PheRS (IC50). Further, the “MIC S.aureus” value in the experiment with S.aureus (setting [1]) turned out to be 3.1 µg/mL (≈ 6.25 µM).

Regarding `O=C(Nc1ccc(Cl)c(Cl)c1)C1C(c2ccccc2)OC23C(O)c4ccccc4C2OC(=O)C13` (single isomer, unassigned) [Example 1b], the concentration for half-maximal inhibition (IC50) against E.faecalis PheRS was found to be 470 nM. For the same molecule, the “MIC S.aureus” value in the experiment on S.aureus (setting [1]) was found to be 6.25 µg/mL (≈ 12.6 µM).

At E.faecalis PheRS, `O=C(Nc1ccc(Cl)c(Cl)c1)C1C(c2ccccc2)NC23C(O)c4ccccc4C2OC(=O)C13` (single isomer, unassigned) [Example 3b] displayed an IC50 of 4300 nM. For the same molecule, in the experiment on S.aureus (setting [2]), the MIC is 25 µg/mL (≈ 50.5 µM).

As for `O=C(Nc1ccc(Cl)c(Cl)c1)C1C(c2ccccc2)NC23C(O)c4ccccc4C2OC(=O)C13` (single isomer, unassigned) [Example 3c], it took 400 nM to reach half-maximal inhibition at E.faecalis PheRS (IC50). In addition, in the experiment on S.aureus (setting [1]), the “MIC S.aureus” value was found to be 12.5 µg/mL (≈ 25.2 µM).

In turn, `O=C(Nc1ccc(Cl)c(Cl)c1)C1C(c2ccccc2)OC23C(=O)c4ccccc4C2OC(=O)C13` (centres unmarked) [Example 2] yielded an IC50 at E.faecalis PheRS of 3080 nM. In addition, the MIC in the experiment with S.aureus (setting [2]) is greater than 100 µg/mL.

The molecule `Cc1ccc(NC(=O)C2C(c3ccccc3)OC34C(O)c5ccccc5C3OC(=O)C24)cc1Cl` (centres unmarked) [Example 4a] showed an IC50 against E.faecalis PheRS of 1480 nM. Further, the “MIC S.aureus” value against S.aureus (setting [1]) was greater than 100 µg/mL.

Molecule `Cc1ccc(NC(=O)C2C(c3ccccc3)OC34C(O)c5ccccc5C3OC(=O)C24)cc1Cl` (centres unmarked) [Example 4b] came in with an IC50 at E.faecalis PheRS of 8230 nM. Further, in the experiment on S.aureus (setting [1]), the “MIC S.aureus” value was greater than 100 µg/mL.

As for `Cc1ccc(NC(=O)C2C(c3ccccc3)OC34C(O)c5ccccc5C3OC(=O)C24)cc1Cl` (centres unmarked) [Example 4c], on E.faecalis PheRS, the IC50 worked out at 33200 nM. Further, the “MIC S.aureus” value with S.aureus (setting [1]) is 25 µg/mL (≈ 52.5 µM).

As to `O=C(Nc1ccc(Cl)c(Cl)c1)C1C(c2ccccc2)OC23C(=NO)c4ccccc4C2OC(=O)C13` (centres unmarked) [Example 5], the MIC with S.aureus (read-out: MIC S.aureus, 2-fold dilutions, overnight incubation, optical density readout) was less than 100 µg/mL.

The values above are taken from patent US6153645A, “Heterocycles as antimicrobial agents” (Cubist Pharmaceuticals, Inc., priority 1999, dated 2000).
